# From article PMC11470957, “Principles of paralog-specific targeted protein degradation engaging the C-degron E3 KLHDC2” (Nature Communications, 2024)
# “And” between values parts separate entries of the source, which are not always exact repeats. Equal entries are not always repeated.
# Legend:
# R56A KLHDC2^SBD = target: T1, R56A KLHDC2^SBD (Homo sapiens, UniProt Q9Y2U9, R56A); assay: ITC, binary binding to R56A KLHDC2^SBD
# T1 sequence (Q9Y2U9 15-361 R56A): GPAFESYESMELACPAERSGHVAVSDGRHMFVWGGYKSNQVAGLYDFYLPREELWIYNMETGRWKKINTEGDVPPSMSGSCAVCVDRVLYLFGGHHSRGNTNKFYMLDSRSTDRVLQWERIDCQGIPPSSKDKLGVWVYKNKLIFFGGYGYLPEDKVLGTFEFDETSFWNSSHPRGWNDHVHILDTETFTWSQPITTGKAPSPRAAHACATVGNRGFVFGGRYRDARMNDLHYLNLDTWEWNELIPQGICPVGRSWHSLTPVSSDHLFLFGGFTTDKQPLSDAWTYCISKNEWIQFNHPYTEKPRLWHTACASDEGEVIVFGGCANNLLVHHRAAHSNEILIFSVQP
# KLHDC2 = target: T2, KLHDC2 (Homo sapiens, UniProt Q9Y2U9); assay: Western blot of KLHDC2 levels after cellular dosing
# T2 sequence (Q9Y2U9 1-406): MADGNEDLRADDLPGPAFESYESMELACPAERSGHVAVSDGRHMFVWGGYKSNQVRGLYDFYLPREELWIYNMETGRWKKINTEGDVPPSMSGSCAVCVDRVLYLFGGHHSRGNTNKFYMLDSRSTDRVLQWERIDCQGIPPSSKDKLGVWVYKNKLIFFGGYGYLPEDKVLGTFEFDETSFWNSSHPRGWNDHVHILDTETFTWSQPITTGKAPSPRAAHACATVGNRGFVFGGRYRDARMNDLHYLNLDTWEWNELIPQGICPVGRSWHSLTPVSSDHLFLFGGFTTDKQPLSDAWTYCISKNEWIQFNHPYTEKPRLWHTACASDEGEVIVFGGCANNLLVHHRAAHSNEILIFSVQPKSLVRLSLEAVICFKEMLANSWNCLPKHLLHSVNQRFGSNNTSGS
# KLHDC2^SBD / BRD4^BD2 = KLHDC2^SBD / BRD4^BD2 (Homo sapiens, UniProt O60885+Q9Y2U9); assay: ITC, ternary complex KLHDC2^SBD with PROTAC-BRD4^BD2
# [1] = target: R56A KLHDC2^SBD / BRD3^BD2 (Homo sapiens, UniProt Q15059+Q9Y2U9, R56A); assay: ITC, ternary complex R56A KLHDC2^SBD with PROTAC-BRD3^BD2
# [2] = target: R112A KLHDC2^SBD / BRD3^BD2 (Homo sapiens, UniProt Q15059+Q9Y2U9, R112A); assay: ITC, ternary complex R112A KLHDC2^SBD with PROTAC-BRD3^BD2
# [3] = tested on: BRD proteins in U2OS KO/rescue lysate; assay: Degradation in non-denaturing lysates of U2OS KO/rescue cells; conditions: non-denaturing U2OS KO/rescue lysate 4mg/ml, 10 µM, 30° C
# [4] = target: R56A KLHDC2^SBD / G386E BRD4^BD2 (Homo sapiens, UniProt O60885+Q9Y2U9, G386E/R56A); assay: ITC, ternary complex R56A KLHDC2^SBD with PROTAC-G386E BRD4^BD2
# [5] = tested on: BD2 domain from BRD2, BRD3, or BRD4 / neddylated CRL2^KLHDC2; assay: Pulse-chase PROTAC-dependent ubiquitylation of BRD BD2 domains by neddylated CRL2^KLHDC2; conditions: neddylated CRL2^KLHDC2 not subject to autoinhibition; Fig 3e
# [6] = cell: SJ46421, syringe: R56A KLHDC2^SBD
# [7] = cell: PROTAC-BRD4^BD2, syringe: KLHDC2^SBD
# [8] = cell: SJ46421-BRD3^BD2, syringe: R56A KLHDC2^SBD
# [9] = ITC source data Fig4f, N=1, syringe R112A KLHDC2, cell SJ46421-BRD3BD2
# [10] = ITC, syringe R112A KLHDC2, cell compound-BRD3BD2, N=1
# [11] = cell: SJ46421-BRD3^BD2, syringe: R112A KLHDC2^SBD, n=1
# [12] = cell: SJ46421-G386E BRD4^BD2, syringe: R56A KLHDC2^SBD
# Sequence of R56A KLHDC2^SBD / BRD3^BD2 (Q15059 306-416, one chain of several): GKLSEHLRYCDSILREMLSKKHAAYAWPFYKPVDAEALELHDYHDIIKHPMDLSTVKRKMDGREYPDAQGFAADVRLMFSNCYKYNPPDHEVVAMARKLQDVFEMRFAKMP
# Sequence of R112A KLHDC2^SBD / BRD3^BD2 (Q9Y2U9 15-361 R112A): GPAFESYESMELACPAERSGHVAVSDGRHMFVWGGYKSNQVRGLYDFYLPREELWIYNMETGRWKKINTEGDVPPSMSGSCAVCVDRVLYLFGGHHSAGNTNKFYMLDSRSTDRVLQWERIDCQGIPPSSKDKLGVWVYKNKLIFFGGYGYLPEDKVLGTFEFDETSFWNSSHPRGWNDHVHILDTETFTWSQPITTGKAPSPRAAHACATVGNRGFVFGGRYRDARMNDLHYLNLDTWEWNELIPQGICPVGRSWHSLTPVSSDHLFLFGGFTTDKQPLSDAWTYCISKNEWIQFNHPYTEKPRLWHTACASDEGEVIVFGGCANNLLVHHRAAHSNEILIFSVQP
# Sequence of R112A KLHDC2^SBD / BRD3^BD2 (Q15059 306-416): as the sequence (Q15059 306-416, one chain of several) above
structure (smiles),measurement,setting,value
Cc1sc2c(c1C)C(c1ccc(Cl)cc1)=N[C@@H](CC(=O)N1CCN(CCOc3cccc4ccc(-c5nc(CC(=O)NCC(=O)O)cs5)cc34)CC1)c1nnc(C)n1-2 [SJ46421],Kd,"R56A KLHDC2^SBD; ITC Kd, cell: SJ46421, syringe: R56A KLHDC2^SBD",0.463 ± 0.015 µM
same,Kd,"R56A KLHDC2^SBD; Kd, Rep1/Rep2, ITC source data Fig4f, syringe R56A KLHDC2, cell SJ46421",0.462 µM and 0.464 µM
same,ITC -TΔS,R56A KLHDC2^SBD; [6],-6.66 +/- 0.25 kcal/mol-1
same,ITC N,R56A KLHDC2^SBD; [6],1.0
same,ITC ΔG,R56A KLHDC2^SBD; [6],-8.85 +/- 0.05 kcal/mol-1
same,ITC ΔH,R56A KLHDC2^SBD; [6],-1.82 +/- 0.05 kcal/mol-1
same,"KLHDC2 level, Western blot quantification","KLHDC2; Fig 6b, KO/Rescue, 5 uM, DMSO printed 0",0
same,"KLHDC2 level, Western blot quantification (DMSO = 100)","KLHDC2; Fig 6b, U2OS, 5 uM",103.737 and 122.001
same,"KLHDC2 level, Western blot quantification (DMSO = 100)","KLHDC2; Fig S6a, 293T cells, 2.5 uM",109.414 and 102
same,"KLHDC2 level, Western blot quantification (DMSO = 100)","KLHDC2; Fig S6a, 293T cells, 5 uM",112.068 and 103
same,"KLHDC2 level, Western blot quantification (DMSO = 100)","KLHDC2; Fig S6b, MDA-MB468 Cells, 10 uM",128.202 and 120
same,cooperativity α,"KLHDC2^SBD / BRD4^BD2; BRD4^BD2, KLHDC2^SBD",2.8
same,ITC -TΔS (ternary),KLHDC2^SBD / BRD4^BD2; [7],-1.51 +/- 0.11 kcal/mol-1
same,ITC N (ternary),KLHDC2^SBD / BRD4^BD2; [7],0.8
same,ITC ΔG (ternary),KLHDC2^SBD / BRD4^BD2; [7],-9.72 +/- 0.04 kcal/mol-1
same,ITC ΔH (ternary),KLHDC2^SBD / BRD4^BD2; [7],-8.22 +/- 0.09 kcal/mol-1
same,cooperativity α,"[1]; BRD3^BD2, R56A KLHDC2^SBD",1.7
same,Kd,"[1]; Kd, Rep1/Rep2, ITC source data Fig4f, syringe R56A KLHDC2, cell SJ46421-BRD3BD2",0.291 µM and 0.255 µM
same,ITC -TΔS (ternary),[1]; [8],-5.02 +/- 0.31 kcal/mol-1
same,ITC N (ternary),[1]; [8],1.1
same,ITC ΔG (ternary),[1]; [8],-9.19 +/- 0.03 kcal/mol-1
same,ITC ΔH (ternary),[1]; [8],-3.68 +/- 0.03 kcal/mol-1
same,Kd,[2],0.0397 µM
same,"(-)TDS, Rep1",[2]; [9],-7.43
same,"DG, Rep1",[2]; [9],-10.3
same,"DH, Rep1",[2]; [9],-2.9
same,(-)TDS,[2]; [10],-7.43
same,DG,[2]; [10],-10.3
same,DH,[2]; [10],-2.9
same,cooperativity α,"[2]; R112A KLHDC2^SBD, estimated from the binding affinity of SJ46421 to WT KLHDC2",7.6
same,ITC -TΔS (ternary),[2]; [11],-7.43 kcal/mol-1
same,ITC N (ternary),[2]; [11],0.8
same,ITC ΔG (ternary),[2]; [11],-10.3 kcal/mol-1
same,ITC ΔH (ternary),[2]; [11],-2.9 kcal/mol-1
same,degrader dependent decrease in BRD protein levels in lysate,[3],did not observe a degrader dependent decrease
same,cooperativity α,"[4]; G386E BRD4^BD2, R56A KLHDC2^SBD",1.4
same,Kd,"[4]; Kd, Rep1/Rep2, ITC source data Fig4f, syringe R56A KLHDC2, cell SJ46421-G386EBRD4BD2",0.333 µM and 0.325 µM
same,ITC -TΔS (ternary),[4]; [12],-4.42 +/- 0.19 kcal/mol-1
same,ITC N (ternary),[4]; [12],1.1
same,ITC ΔG (ternary),[4]; [12],-9.05 +/- 0.01 kcal/mol-1
same,ITC ΔH (ternary),[4]; [12],-4.69 +/- 0.15 kcal/mol-1
same,"polyubiquitylation of the BD2 domain from BRD2, BRD3, or BRD4",[5],able to promote polyubiquitylation
